Assay [1] concerns the target T1, BIR2 domain of XIAP (Homo sapiens, UniProt P98170, C202A/C213G).
T1 construct: 6× Histidine-tagged BIR2 domain, corresponding to amino acids 124-240 of XIAP
In words: TR-FRET assay for BIR2 (inhibition of binding of XIAP BIR2 domain to SMAC-derived Peptide A). The conditions noted are these: 6x Histidine-tagged BIR2 domain (amino acids 124-240 of XIAP) 10 nM, Peptide A 20 nM. The method, boiled down: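 Inhibition of binding of the XIAP BIR2 domain (C202A/C213G) to biotinylated SMAC-derived Peptide A was measured. TR-FRET signal was read after 1 h at room temperature.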
(TR-FRET usually uses a lanthanide donor and a delayed reading to cut background.)

Assay [2] concerns the target T2, BIR3 domain of XIAP (Homo sapiens, UniProt P98170).
T2 construct: BIR3 domain, corresponding to amino acids 241-356 of XIAP
In words: TR-FRET assay for BIR3 (inhibition of binding of XIAP BIR3 domain to SMAC-derived Peptide A). The conditions noted are these: 6x Histidine-tagged BIR3 domain (amino acids 241-356 of XIAP) 10 nM, Peptide A 20 nM. The method, boiled down: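 His6-tagged XIAP BIR3 (aa 241-356, 10 nM) was mixed with 20 nM biotinylated SMAC-derived peptide in 50 mM Tris-Cl pH 7.5, 100 mM NaCl, 1 mM DTT, 0.1 mg/mL BSA and incubated 45 min at 37 °C. Eu-streptavidin (1.5 nM) and APC anti-His (15 nM) were added, with TR-FRET read 1 h later at RT. IC50 came from % inhibition over 10 serial concentrations.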

Broadly, the IC50 is the midpoint of a concentration-inhibition curve. Read a low IC50 as higher potency.

T1 sequence (P98170 with tags, fused parts or gaps C202A/C213G): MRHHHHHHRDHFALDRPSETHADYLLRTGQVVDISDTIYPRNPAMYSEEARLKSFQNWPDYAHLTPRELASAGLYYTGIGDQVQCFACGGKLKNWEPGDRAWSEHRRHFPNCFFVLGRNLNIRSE
T2 sequence (P98170 with tags, fused parts or gaps): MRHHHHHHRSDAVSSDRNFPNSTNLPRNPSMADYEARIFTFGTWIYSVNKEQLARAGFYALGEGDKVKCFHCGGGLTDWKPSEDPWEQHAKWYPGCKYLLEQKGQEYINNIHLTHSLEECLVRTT

Consider `CN[C@@H](C)C(=O)N[C@H](C(=O)N1c2ncccc2C[C@H]1C(=O)Nc1ccccc1)C1CCCCC1` [Example 80, (S)-1-[(S)-2-Cyclohexyl-2-((S)-2-methylamino-propionylamino)-acetyl]-2,3-dihydro-1H-pyrrolo[2,3-b]pyridine-2-carboxylic acid phenylamide], for which the concentration for half-maximal inhibition (IC50) was 117 nM in assay [1] and greater than 54.8 µM in assay [2].

Take `CN[C@@H](C)C(=O)N[C@H](C(=O)N1c2ncccc2C[C@H]1C(=O)Nc1c(C)cccc1Cl)C(C)C` [Example 71, (S)-1-[(S)-3-Methyl-2-((S)-2-methylamino-propionylamino)-butyryl]-2,3-dihydro-1H-pyrrolo[2,3-b]pyridine-2-carboxylic acid (2-chloro-6-methyl-phenyl)-amide]: the half-maximal inhibitory concentration (IC50) is 19.2 nM in assay [1] and greater than 54.8 µM in assay [2].

Consider `CN[C@@H](C)C(=O)N[C@H](C(=O)N1c2ncccc2C[C@H]1C(=O)Nc1c(F)cccc1C(F)(F)F)C(C)C` [Example 73, (S)—N-(2-fluoro-6-(trifluoromethyl)phenyl)-1-((S)-3-methyl-2-((S)-2-(methylamino)propanamido)butanoyl)-2,3-dihydro-1H-pyrrolo[2,3-b]pyridine-2-carboxamide], for which the half-inhibitory concentration (IC50) is 69.1 nM in assay [1] and greater than 54.8 µM in assay [2].

For `CN[C@@H](C)C(=O)N[C@H](C(=O)N1c2ncccc2C[C@@H]1C(=O)Nc1ccccc1OC)C(C)C` [Example 9, (R)-1-[(S)-3-Methyl-2-((S)-2-methylamino-propionylamino)-butyryl]-2,3-dihydro-1H-pyrrolo[2,3-b]pyridine-2-carboxylic acid (2-methoxy-phenyl)-amide], the results for the IC50 in assay [1] and in assay [2] were 12700 nM and greater than 54.8 µM, respectively.

Take `CN[C@@H](C)C(=O)N[C@H](C(=O)N1c2ncccc2C[C@H]1C(=O)NCc1ccc(F)cc1)C(C)C` [Example 24, (S)-1-[(S)-3-Methyl-2-((S)-2-methylamino-propionylamino)-butyryl]-2,3-dihydro-1H-pyrrolo[2,3-b]pyridine-2-carboxylic acid 4-fluoro-benzylamide]: the IC50 in assay [1] came to 774 nM; in assay [2], 9.21 µM.

As to `CCc1ccccc1NC(=O)[C@@H]1Cc2cccnc2N1C(=O)[C@@H](NC(=O)[C@H](C)NC)C(C)C` [Example 40, (S)-1-[(S)-3-Methyl-2-((S)-2-methylamino-propionylamino)-butyryl]-2,3-dihydro-1H-pyrrolo[2,3-b]pyridine-2-carboxylic acid (2-ethyl-phenyl)-amide], the values for the IC50 in assay [1] and in assay [2] were 104 nM and greater than 54.8 µM, respectively.

Consider `CC[C@H](NC)C(=O)N[C@H](C(=O)N1c2ncccc2C[C@@H]1C(=O)Nc1ccccc1)C1CCCCC1` [Example 81, (R)-1-[(S)-2-Cyclohexyl-2-((S)-2-methylamino-butyrylamino)-acetyl]-2,3-dihydro-1H-pyrrolo[2,3-b]pyridine-2-carboxylic acid phenylamide], for which the IC50 in assay [1] is 10400 nM; in assay [2], greater than 54.8 µM.

Regarding `CCNC(=O)C1Cc2cccnc2N1C(=O)[C@@H](NC(=O)[C@H](CC)NC)[C@@H](C)CC` (stereo partly drawn) [Example 7, (R,S)-1-[(2S,3S)-3-Methyl-2-((S)-2-methylamino-butyrylamino)-pentanoyl]-2,3-dihydro-1H-pyrrolo[2,3-b]pyridine-2-carboxylic acid ethylamide], the IC50 in assay [1] is 1030 nM; in assay [2], greater than 54.8 µM.

Take `CN[C@@H](C)C(=O)N[C@H](C(=O)N1c2ncccc2C[C@H]1C(=O)Nc1ccc(C(F)(F)F)cc1F)C(C)C` [Example 59, (S)-1-[(S)-3-Methyl-2-((S)-2-methylamino-propionylamino)-butyryl]-2,3-dihydro-1H-pyrrolo[2,3-b]pyridine-2-carboxylic acid (2-fluoro-4-trifluoromethyl-phenyl)-amide]: the concentration for half-maximal inhibition (IC50) is 53.6 nM in assay [1] and greater than 54.8 µM in assay [2].

As to `CCNC(=O)C1Cc2cccnc2N1C(=O)[C@@H](NC(=O)[C@H](CC)NC)C1CCCCC1` (stereo partly drawn) [Example 5, (R,S)-1-[(S)-2-Cyclohexyl-2-((S)-2-methylamino-butyrylamino)-acetyl]-2,3-dihydro-1H-pyrrolo[2,3-b]pyridine-2-carboxylic acid ethylamide], the half-maximal inhibitory concentration (IC50) in assay [1] was 1860 nM; in assay [2] it was greater than 54.8 µM.

For the compound `CN[C@@H](C)C(=O)N[C@H](C(=O)N1c2ncccc2C[C@H]1C(=O)Nc1ccc(F)cc1)C(C)C` [Example 21, (S)-1-[(S)-3-Methyl-2-((S)-2-methylamino-propionylamino)-butyryl]-2,3-dihydro-1H-pyrrolo[2,3-b]pyridine-2-carboxylic acid (4-fluoro-phenyl)-amide], the concentration for half-maximal inhibition (IC50) was 275 nM in assay [1] and greater than 54.8 µM in assay [2].

As for `CN[C@@H](C)C(=O)N[C@H](C(=O)N1c2ncccc2C[C@H]1C(=O)Nc1cc(C)cc(C)c1)C(C)C` [Example 45, (S)-1-[(S)-3-Methyl-2-((S)-2-methylamino-propionylamino)-butyryl]-2,3-dihydro-1H-pyrrolo[2,3-b]pyridine-2-carboxylic acid (3,5-dimethyl-phenyl)-amide], the 50% inhibitory concentration (IC50) in assay [1] was 304 nM; in assay [2], greater than 54.8 µM.

Turning to `CN[C@@H](C)C(=O)N[C@H](C(=O)N1c2ncccc2C[C@@H]1C(=O)Nc1c(F)cccc1F)C1CCOCC1` [Example 95, (R)-1-[(S)-2-((S)-2-Methylamino-propionylamino)-2-(tetrahydro-pyran-4-yl)-acetyl]-2,3-dihydro-1H-pyrrolo[2,3-b]pyridine-2-carboxylic acid (2,6-difluoro-phenyl)-amide], the half-maximal inhibitory concentration (IC50) in assay [1] was 607 nM; in assay [2] it was greater than 54.8 µM.

In the case of `CN[C@@H](C)C(=O)N[C@H](C(=O)N1c2ncccc2C[C@H]1C(=O)Nc1cncnc1)C(C)C` [Example 56, (S)-1-[(S)-3-Methyl-2-((S)-2-methylamino-propionylamino)-butyryl]-2,3-dihydro-1H-pyrrolo[2,3-b]pyridine-2-carboxylic acid pyrimidin-5-ylamide], the IC50 is 1630 nM in assay [1] and greater than 54.8 µM in assay [2].

Regarding `CN[C@@H](C)C(=O)N[C@H](C(=O)N1c2ncccc2C[C@H]1C(=O)Nc1cc(C)ccc1F)C(C)C` [Example 44, (S)-1-[(S)-3-Methyl-2-((S)-2-methylamino-propionylamino)-butyryl]-2,3-dihydro-1H-pyrrolo[2,3-b]pyridine-2-carboxylic acid (2-fluoro-5-methyl-phenyl)-amide], the figures for the IC50 in assay [1] and in assay [2] were 3.8 nM and greater than 54.8 µM, respectively.

On to `CN[C@@H](C)C(=O)N[C@H](C(=O)N1c2ncccc2C[C@H]1C(=O)Nc1cccc(F)c1)C(C)C` [Example 39, (S)-1-[(S)-3-Methyl-2-((S)-2-methylamino-propionylamino)-butyryl]-2,3-dihydro-1H-pyrrolo[2,3-b]pyridine-2-carboxylic acid (3-fluoro-phenyl)-amide], for which the half-inhibitory concentration (IC50) in assay [1] was 226 nM; in assay [2] it was greater than 54.8 µM.

With `CN[C@@H](C)C(=O)N[C@@H](CCS(C)(=O)=O)C(=O)N1c2ncccc2C[C@@H]1C(=O)Nc1ccccc1` [Example 97, 1-[(S)-4-Methanesulfonyl-2-((S)-2-methylamino-propionylamino)-butyryl]-2,3-dihydro-1H-pyrrolo[2,3-b]pyridine-2-carboxylic acid phenylamide], the IC50 in assay [1] is 3060 nM; in assay [2], greater than 54.8 µM.

Regarding `CN[C@@H](C)C(=O)N[C@H](C(=O)N1c2ncccc2C[C@H]1C(=O)Nc1ccc(OC)cc1F)C(C)C` [Example 47, (S)-1-[(S)-3-Methyl-2-((S)-2-methylamino-propionylamino)-butyryl]-2,3-dihydro-1H-pyrrolo[2,3-b]pyridine-2-carboxylic acid (2-fluoro-4-methoxy-phenyl)-amide], the results for the IC50 in assay [1] and in assay [2] were 4.29 nM and greater than 54.8 µM, respectively.

`CN[C@@H](C)C(=O)N[C@H](C(=O)N1c2ncccc2C[C@H]1C(=O)Nc1ccc2ccccc2c1)C(C)C` [Example 57, (S)-1-[(S)-3-Methyl-2-((S)-2-methylamino-propionylamino)-butyryl]-2,3-dihydro-1H-pyrrolo[2,3-b]pyridine-2-carboxylic acid naphthalen-2-ylamide]: the IC50 is 164 nM in assay [1] and greater than 54.8 µM in assay [2].

On to `CN[C@@H](C)C(=O)N[C@H](C(=O)N1c2ncccc2C[C@H]1C(=O)Nc1ccccc1Oc1ccccc1)C(C)C` [Example 30, (S)-1-[(S)-3-Methyl-2-((S)-2-methylamino-propionylamino)-butyryl]-2,3-dihydro-1H-pyrrolo[2,3-b]pyridine-2-carboxylic acid (2-phenoxy-phenyl)-amide], for which the results for the 50% inhibitory concentration (IC50) in assay [1] and in assay [2] were 158 nM and 46.8 µM, respectively.

`CN[C@@H](C)C(=O)N[C@H](C(=O)N1c2ncccc2C[C@H]1C(=O)Nc1cnccc1C)C(C)C` [Example 38, (S)-1-[(S)-3-Methyl-2-((S)-2-methylamino-propionylamino)-butyryl]-2,3-dihydro-1H-pyrrolo[2,3-b]pyridine-2-carboxylic acid (4-methyl-pyridin-3-yl)-amide]: the IC50 in assay [1] was 237 nM; in assay [2], greater than 54.8 µM.

As for `CN[C@@H](C)C(=O)N[C@H](C(=O)N1c2ncccc2C[C@@H]1C(=O)Nc1ccccc1C(=O)c1ccccc1)C(C)C` [Example 27, (R)-1-[(S)-3-Methyl-2-((S)-2-methylamino-propionylamino)-butyryl]-2,3-dihydro-1H-pyrrolo[2,3-b]pyridine-2-carboxylic acid (2-benzoyl-phenyl)-amide], the IC50 in assay [1] is 2110 nM; in assay [2], greater than 54.8 µM.

Values taken from patent US9309248B2, “Azaindolines” (Hoffmann-La Roche Inc., priority 2012, dated 2016).
